# Source: US4551453A, “2-(ω-Alkylaminoalkyl)- and 2-(ω-dialkylaminoalkyl-3-(4-X-benzylidene)-phthalimidines” (Laboratori Baldacci SpA, priority 1982, dated 1985)
# Counter-ions that a name gives are not always drawn.
# Tests used:
# [1] = 60 day intramuscular toxicological study; format: in vivo, rats; conditions: rat, in vivo, im; rats, i.m., 60 days; read-out: dosage of first toxic alterations relative to single dose useful in the human being
# Procedure: (§1) In order to shown the potential toxicity of the compound AL 12 B a toxicological study was programmed which either for the duration of the administration period (60 days), and for the route of introduction in the organism (intramuscular) and for the variety of used dosages (5-10-20 mg/kg) was surely suitable to indicate the possible toxicity of the substance.
# (§2) It is pointed out that the lowest dose used in the test is already about 5 to 10 times higher than the single therapeutical dose, possibly used by infiltration in the human being. Male and female rats, having respectively a body weight of about 90 and 65 g, were divided in groups of 6-9 animals of the same sex and stalled in 2 to 3 animals per cage with water and food ad libitum.
# (§3) The environment conditions were maintained constant at 24° C., moisture at night-day cycle.
# (§4) The drug in apirogenic sterile solution was daily injected by intramuscolar route. At the end of the treatment the animals were anesthetized for the blood removal for the hematochemical and hematological examinations. The animals were than sacrificed and the weight of the single fresh organs was carefuly recorded. The hematochemical parameters which were taken into consideration were the following: glycemia, uricemia, alkaline phosphatase (ALP) malate dehydrogenase (MDH), acetylcholinesterase (CHE), SGPT, SGOT, L-y-glutamyltransferase (Y.G.T.), ornitincarbonyltransferase (O.C.T.), triocylglycerolacylhydrolase (Lipase), isocitratedehydrogenase (ICDH), sorbitole dehydrogenase (SDH), hydroxybutyrate dehydrogenase (HCDH), lactic dehydrogenase (LDHP), […] arylamidase (LAP), sodiemia, potassiemia, chloridemia, magnesiemia, calcemia, total tryglicerides, albumins, globulins, A/G total proteins, total cholesterole, amylasemia, creatininemia. Some hematological parameters were furthermore measured: red corpuscles, platelets, white corpusles, leucocitary form, hemoglobine.
# (§5) The urinary parameters taken into consideration were, besides the 24 hour volume, azotemia, creatininuria, amylasuria, uricuria, calciuria, chlorides, sodium and potassium.
# (§6) For the statistical evaluations of the weight of the fresh organs the analysis of the covariations was effected in order to eliminate the possible influences of the body weight onto the organ weight.
# (§7) The hematological and hematochemical parameters were statistically balanced by means of the variancy analysis by taking into consideration all the gropus and the Student "t" amongst the single treated groups and the control group.
# (§8) The homogeneity of the leucocitary form was investigated by the .chi.^2 test.
# [2] = test system: Male and female rats; assay: 60 day intramuscular toxicological study; format: in vivo; conditions: 60 days
# Procedure: as §1, §2, §3, §4, §5, §6, §7, §8
# [3] = test system: sciatic nerve of edible frog; assay: Test on the sciatic nerve of frog (inhibition of action potential); conditions: for times more active than lidocaine: deduced from frog sciatic nerve comparison with procaine and literature lidocaine/procaine ratio; for times more powerful than procaine: sciatic nerve of frog, vs procaine
# Procedure: There was assessed the concentration of the tested substances (AL 12, AL 12 B and AL 5) capable of inhibiting or reducing the action potential of the sciatic nerve of edible frog after removal of a lenght of perinerium.
# The stimulating device was sending maximum pulses of 0.1 msec of duration.
# The reductions of the action potential after application of the substances were indicated as percentages of the initial action potential.
# The comparison substance was procaine at the following concentrations: 0.4-0.6 and 0.8M
# [4] = test system: vagal nerve of chicken; assay: Test of inhibition of the action potential of the vagal nerve of chicken; conditions: for effects vs tetracaine: same molar concentrations as tetracaine; for IC50: parameter (b), stimulations higher than the maximum, read-out: ED 50, inhibition of the width of the action potential
# Text: For these tests two investigation parameters were selected:
# (a) increase of the stimulating threshold necessary to induce the appearance of the action potential;
# (b) inhibition of the potential width as induced by the supra maximum stimulation. AL 12 and AL 12 B were compared with the tetracaine.
# [5] = test system: Wistar rats; assay: Subacute toxicity, 15 days intramuscular; conditions: 10 mg/kg AL 12 or lidocaine at equivalent molecular dose
# Procedure: It was tested in two stocks of Wistar rats, in three groups each comprising 20 animals, (10 male and 10 female).
# The injections were carried out by intramuscolar route in a point of the thigh for 15 days.
# [6] = test system: sciatic nerve of edible frog; conditions: as unanimously stated in the literature; cited from earlier work
# [7] = Lethality and toxicity for single dose (rat); conditions: in vivo, ip
# Text: Lethality and toxicity for single dose
# [8] = test system: Salmonella Typhymurium; assay: Ames test; format: cell-based; conditions: up to the concentration of 5 ml (so in the source)
# Procedure: (§9) The compound AL 12 was subjected to the tests of genic mutation. All the tests used for such experiments were carried out and precisely:
# (a) Ames test using as the substrate a protocariote organism as Salmonella Typhymurium;
# [9] = test system: Schizosaccharomyces Pombe; assay: Test of genic mutation (forwardly); format: cell-based; conditions: up to the concentration of 5 ml (so in the source)
# Procedure: as §9
# (b) Test of genic mutation (forwardly) of Schizosaccharomyces Pombe, permitting the evaluation of every mutagenic event capable of varying the functionality of every 5 genes involved in the synthesis of adenine;
# [10] = test system: cellular line Hela of human fibroplasts; assay: DNA recovery test (non programmed synthesis of recovery DNA); format: cell-based; conditions: up to the concentration of 5 ml (so in the source)
# Procedure: as §9
# (c) DNA recovery test, i.e. test of the non programmed synthesis of recovery DNA on the cellular line Hela of human fibroplasts.
# [11] = test system: rabbit cornea; assay: Test of the rabbit cornea; format: in vivo
# Text: There were used amounts of AL 12 of 0.25-0.50-1.0% in comparison with amounts of 1% and 2% of xylocaine.
# [12] = Pharmacodynamic tests (overall local anesthetic activity comparison); conditions: AL 12 vs lidocaine, as it appears from the pharmacodynamic tests
# Procedure: As regards the pharmacodynamic tests, they were carried out on the following compounds:
# The local anesthetic power of these compounds was tested in comparison with procaine, xylocaine and tetracaine.
# [13] = test system: mice; conditions: i.v. route
# [14] = in vivo; conditions: mouse
compound,measurement,setting,value
"CCN(CC)CCN1C(=O)c2ccccc2C1=Cc1ccc(OC(C)=O)cc1 [AL 12B, 3-(4-acetoxybenzylidne)-2-(β diethylaminoethyl)-phthalimidine hydrochloride]",selectivity ratio at 1440 h,[1],10
same,all the investigated parameters,[2]; 5 mg/kg i.m.,none appeared to be modified
same,HBDG,"[2]; female, 10 mg/kg i.m.",increase
same,LDH-P,"[2]; female, 10 mg/kg i.m.",increase
same,globulins,"[2]; female, 10 mg/kg i.m.",increase
same,"urinary parameters, females","[2]; female, 10 mg/kg i.m.",no alteration might be appreciated
same,alterations in female animals,"[2]; female, 20 mg/kg i.m.",no alteriation might be appreciated
same,body weight growth vs control,"[2]; male and female rats, 5-10-20 mg/kg i.m.",comparable with that of the control animals
same,hematological parameters,"[2]; male and female, 10 mg/kg i.m.",None of the hematological parameters was modified
same,"body weight growth, males at higher dosages (not statistically significant)","[2]; male rats, 10-20 mg/kg i.m.",tendentially reduced
same,albumins,"[2]; male, 10 mg/kg i.m.",reduction
same,amylasuria,"[2]; male, 10 mg/kg i.m.",reduced
same,glycemia,"[2]; male, 10 mg/kg i.m.",reduction
same,"spleen weight, males","[2]; male, 10 mg/kg i.m.",slight increase
same,urinary chloride,"[2]; male, 10 mg/kg i.m.",reduced
same,weight of the spleen,"[2]; male, 20 mg/kg i.m.",increased
same,weight of the suprarenal glands,"[2]; male, 20 mg/kg i.m.",increased
same,ALP (alkaline phosphatase),"[2]; male, found also in female, 10 mg/kg i.m.",slight increase
same,dose-dependence of the observed modifications,"[2]; rats, 5-10-20 mg/kg i.m.","none of the observed modifications, was shown to be dose-dependent"
same,overall toxicity,"[2]; rats, 5-10-20 mg/kg i.m.",not particularly toxic
same,times more active than lidocaine,[3],about 4 times
same,IC50,"[3]; sciatic nerve of edible frog, read-out: ED50 (reduction of action potential)",80000 µM
same,times more powerful than procaine,[3],at least 8.5 times
same,effects vs tetracaine,[4],almost perfectly superimposable to those of tetracaine
"CCCCNc1ccc(C(=O)OCCN(C)C)cc1 [tetracaine, reference compound]",IC50,[4],0.008 µM
CCN(CC)CC(=O)Nc1c(C)cccc1C [lidocaine],food consumption and diuresis,[5]; all along the treatment period,normal
same,all the other functions,"[5]; intramuscular, 15 days",remained unchanged
same,autoptic examination,"[5]; intramuscular, 15 days",Nothing out of the rule was observed
same,"loss of functionality of the injected leg, duration","[5]; intramuscular, 15 days",about one
same,weight of the organs vs control animals,"[5]; intramuscular, 15 days",did not differ from that of the control animals
same,"local anesthetic activity, times higher than procaine",[6],about 2.2 times
"CCN(CC)CCN1C(=O)c2ccccc2C1=Cc1ccc(OC)cc1 [AL 12, 3-(4-methoxybenzylidene)-2-(β-diethylaminoetyl)phthalimidine hydrochloride]",LD50,[7],52.5 mg/kg
same,"induction of mutations, Ames test",[8],unable to induce mutations
same,"induction of mutations, genic mutation (forwardly)",[9],unable to induce mutations
same,"induction of mutations, DNA recovery test",[10],unable to induce mutations
same,duration of complete anesthesy,[11]; 0.25% AL 12,30 min
same,duration of complete anesthesy vs xylocaine at a 4 times higher concentration,[11]; 0.25% AL 12 vs 4 times higher xylocaine,slightly lower
same,duration of the complete anesthesy,[11]; 0.50% AL 12,more than 90 minutes
same,anesthetic power vs xylocaine at a 4 times higher dose,[11]; 0.50% AL 12 vs 2% xylocaine,higher
same,times more active than lidocaine,[3],5-6 times
same,times more powerful than procaine,[3],about 11.5 times
same,IC50,[4],0.008 µM
same,effects vs tetracaine,[4],almost perfectly superimposable to those of tetracaine
same,local anesthetic activity: lidocaine is about n times less active than AL 12,[12],about 4 times
same,"acute toxicity, times higher in comparison with lidocaine",[13],about 2.4 (2.37) times
same,LD50,[14]; im,32.5 mg/kg
same,LD50,[14]; iv,13.5 mg/kg
"CCN(CC)CC(=O)Nc1c(C)cccc1C [xylocaine, reference compound]",duration of the complete anesthesy,[11]; 2% xylocaine,60 min
"CN(C)CCCN1C(=O)c2ccccc2C1=Cc1ccccc1 [AL 5, 3-benzylidene-2-(γ-dimethylaminopropyl)-phthalimidine hydrochloride]",times more powerful than procaine,[3],about 5 times
